Experimental data published in the CheMixHub ionic liquid set.

Test: xn = mol fraction of the nth substance listed
Details: 100 kPa, x1 = 0.0001802

CCCC[n+]1ccn(C)c1.[Cl-] + O + CCCCCCCCCCCCCCCC[N+](C)(C)C.[Br-]
electrical conductivity [S/m]
Details | 298 K | 303 K | 308 K | 313 K | 318 K
x3 = 8.8e-07 | 0.095 | 0.094 | 0.096 | 0.101 | 0.101
x3 = 1.79e-06 | 0.096 | 0.095 | 0.097 | 0.101 | 0.101
x3 = 2.67e-06 | 0.097 | 0.095 | 0.097 | 0.102 | 0.102
x3 = 3.56e-06 | 0.097 | 0.096 | 0.098 | 0.102 | 0.102
x3 = 4.42e-06 | 0.098 | 0.096 | 0.098 | 0.103 | 0.102
x3 = 5.31e-06 | 0.098 | 0.096 | 0.098 | 0.103 | 0.103
x3 = 6.17e-06 | 0.098 | 0.097 | 0.099 | 0.104 | 0.103
x3 = 7.02e-06 | 0.098 | 0.097 | 0.099 | 0.104 | 0.103
x3 = 7.87e-06 | 0.098 | 0.097 | 0.099 | 0.104 | 0.103
x3 = 8.72e-06 | 0.098 | 0.097 | 0.1 | 0.104 | 0.104
x3 = 9.57e-06 | 0.099 | – | – | – | –
x3 = 1.04e-05 | 0.099 | 0.098 | 0.1 | 0.105 | 0.104
x3 = 1.124e-05 | 0.099 | – | – | – | –
x3 = 1.206e-05 | 0.099 | 0.098 | 0.1 | 0.105 | 0.104
x3 = 1.289e-05 | 0.099 | – | – | – | –
x3 = 1.37e-05 | 0.099 | 0.098 | 0.1 | 0.105 | 0.104
x3 = 1.451e-05 | 0.099 | – | – | – | –
x3 = 1.532e-05 | 0.1 | 0.099 | 0.101 | 0.105 | 0.105
x3 = 1.612e-05 | 0.1 | – | – | – | –
x3 = 1.691e-05 | 0.1 | 0.099 | 0.101 | 0.106 | 0.105
x3 = 1.77e-05 | 0.1 | – | – | – | –
x3 = 1.848e-05 | 0.1 | 0.099 | 0.101 | 0.106 | 0.105
x3 = 1.928e-05 | 0.1 | – | – | – | –
x3 = 2.005e-05 | 0.1 | 0.099 | 0.101 | 0.106 | 0.105
x3 = 2.081e-05 | 0.1 | – | – | – | –
x3 = 2.159e-05 | 0.1 | 0.1 | 0.102 | 0.106 | 0.105
x3 = 2.234e-05 | 0.101 | – | – | – | –
x3 = 2.31e-05 | 0.101 | 0.1 | 0.102 | 0.107 | 0.106
x3 = 2.386e-05 | 0.101 | – | – | – | –
x3 = 2.46e-05 | 0.101 | 0.1 | 0.102 | 0.107 | 0.106
x3 = 2.534e-05 | 0.101 | – | – | – | –
x3 = 2.608e-05 | – | 0.1 | 0.102 | 0.107 | 0.106
x3 = 2.754e-05 | – | 0.101 | 0.103 | 0.107 | 0.107
x3 = 2.9e-05 | – | 0.101 | 0.103 | 0.108 | 0.107
x3 = 3.043e-05 | – | 0.101 | 0.103 | 0.108 | 0.107
x3 = 3.184e-05 | – | 0.101 | 0.103 | 0.108 | 0.107
x3 = 3.324e-05 | – | 0.101 | 0.103 | 0.108 | 0.107
x3 = 3.462e-05 | – | 0.101 | 0.104 | 0.109 | 0.108
x3 = 3.599e-05 | – | 0.102 | 0.104 | 0.109 | 0.108
x3 = 3.732e-05 | – | 0.102 | 0.104 | 0.109 | 0.108
x3 = 3.866e-05 | – | 0.102 | 0.104 | 0.109 | 0.108
x3 = 3.998e-05 | – | 0.102 | 0.105 | 0.11 | 0.109
